Results reported in article PMC11796312, “Multifunctional, Fluorene‐Based Modulator of Cholinergic and GABAergic Neurotransmission as a Novel Drug Candidate for Palliative Treatment of Alzheimer's Disease” (Angewandte Chemie (International Ed. in English), 2024).
pKi: −log10 of the molar value. “Also recorded” adds a separate entry of the source.

Assays:
[1] = test system: mice treated with scopolamine; experiment: Passive avoidance (PA) task, scopolamine-induced amnesia; assay type: in vivo; details: 10 mg/kg i.p., vs scopolamine-treated group
Protocol: (§1) Animals and housing conditions
(§2) In all pharmacodynamic in vivo experiments, except for the Barnes maze (BM) task, adult male Albino Swiss (CD-1) mice weighing between 18 and 22 g and purchased from the Animal Breeding Farm of the Faculty of Pharmacy, Jagiellonian University Medical College were used. In BM task, C57BL/6J mice of the same weight (Animalab, Poland) were used.
(§3) Animals were housed in cages (10 mice per cage) at a constant temperature of 22 ± 2 °C, humidity of 55 ± 10%, and a light/dark (12:12) cycle (lights on at 7 AM). Before the experiments, the animals had unlimited access to food and water. Specified conditions for the maintenance of mice were ensured throughout the experiments, including tree bedding (Transwior, Poland) and cage enrichment (tunnels, nesting material, wooden igloos, etc.). […]
(§4) doses for behavioral assays. Lower doses were also assessed if at least one of them was […]
On the first day, during the acquisition trial (a conditioning phase), the test compound 6, scopolamine, and vehicle were injected. […] The latency between opening the guillotine gate and the mouse entering the black compartment was measured for each mouse. On the next day, during the retention (drug-off) trial, the mice were placed again into the white compartment for a 30-s habituation period, and the latency to enter the black compartment was measured for each mouse. […]

[2] = test system: mice treated with scopolamine; experiment: Barnes maze (BM) task; assay type: in vivo, C57BL/6J mice
Protocol: as §1, §2
as §3, with “etc.). For the behavioral test, the mice were selected randomly; each group consisted of 7-12 mice. The experiments were performed between 9 AM and 3 PM. After in vivo tests, the animals were” for “etc.).”
Ethical approval statement
The procedures for the maintenance and treatment of laboratory animals were approved by the 1st Local Ethics Committee of the Jagiellonian University in Krakow (Approvals No.
524/2021, 618/2022), and the treatment of animals was in full accordance with ethical […]
Drugs and dose selection for the in vivo tests
For in vivo assays 6 was suspended in 1% Tween 80 (Sigma Aldrich, Poland) and administered intraperitoneally (i.p.) 60 min before the acquisition trial of the passive avoidance (PA) task, BM task and 60 min before the forced swim test (FST), four-plate test (FPT) and elevated plus maze (EPM) test. Doses 10 mg/kg and 30 mg/kg were the starting […]
as §4
Scopolamine hydrobromide used at the dose of 1 mg/kg for the induction of learning and memory deficits was supplied by Sigma Aldrich (Poland). The dose of scopolamine was chosen based on our previous studies[44,45] and available literature data.[46] […]
Effect on spatial learning and memory – Barnes maze task
Spatial learning and memory in mice were also assessed using the BM task.[47] This task was performed with the BM apparatus (Panlab-Harvard Apparatus, Spain). It consists of a circular, dry, open platform surface equipped with 18 holes around the perimeter of the platform and a small dark recessed chamber located under one of them. Visual extra-maze cues (pictures of colored geometric figures with contrasting backgrounds placed at a distance of 1 m from the platform) were provided to facilitate learning. A weak aversive stimulus (light 600 lx) was applied to increase the animals’ motivation to escape from the circular platform.
The spatial acquisition trial was performed during the first 4 days of the experiment. On the first day of the test, an additional adaptation period preceded a proper trial. In this phase, mice were individually placed in a cylindrical black start chamber in the middle of the circular maze. Ten seconds later, the mouse was released from the start chamber, the light was turned on, and the animal was gently guided to the escape box (a small dark recessed chamber under the BM platform), where it remained for the next 2 min. This phase was not preceded by drug […]
In the spatial acquisition phase, each mouse was subjected to four trials daily, keeping 15-min intervals between each trial. […]

mGAT1 = mGAT1 (Mus musculus, UniProt P31648); experiment: MS Binding Assay with NO 711 as marker
[3] = 10 mg/kg i.p. + scopolamine, vs scopolamine control
[4] = 10 mg/kg, retention trial, vs scopolamine control

O[C@H](CNCC1CC1)[C@H](Cc1ccccc1)NC1c2ccccc2-c2ccccc21 [Compound 6]
step-through latency in the retention trial [1]: significant differences were observed in the retention trial; also recorded: prolonged step‐thorough latency | latency to target, acquisition trial [2, 3]: Statistically significant differences were also observed on day 4; also recorded: statistically significantly reduced latency to target | number of errors, acquisition phase (days 1-4) [2, 3]: no statistically significant differences in the number of errors | number of errors, day 5 ([2]; 10 mg/kg, drug-off trial): no significant differences among groups | latency to former target location, day 12 [2, 4]: A similar effect was noted; also recorded: significantly shortened the latency to former target location | number of errors, day 12 [2, 4]: significantly reduced number of errors made; also recorded: reduced the number of errors | pKi (mGAT1): 4.43
